Measured values published in patent publication US8598339B2, “Withanolide isolated from Physalis longifolia and analogs and methods of use thereof” (University of Kansas, priority 2011, dated 2013).

Key:
Format in all cases: cell-based
[1] = test system: human melanoma SKMEL28 cells; test: MTS cell viability assay, SKMEL28; details: for IC90: SK-MEL-28, Table 6
Procedure: (§1) Human carcinoid cells, NCI-H727 (ATCC, Manassas, Va.), were cultured under standard conditions. Squamous cell carcinoma of head and neck cells, MDA1986 (Myers, et al. (2002) Clin. Cancer Res. 8:293) and JMAR (Swan, et al. (2003) Oral Oncol. 39:648-55); and melanoma cells lines B16F10 (ATCC, Manassas, Va.) and SKMEL28 (CLS, Eppelheim, Germany) were cultured in DMEM medium supplemented with 10% heat-inactivated fetal bovine serum (Sigma-Aldrich, St. Louis, Mo.), 1×MEM-essential amino acid, 1×MEM vitamin, and penicillin/streptomycin (Sigma-Aldrich, St. Louis, Mo.) in a humid environment of 5% CO2 at 37° C. Activity of withanolides against DRO81-1 and TT medullary thyroid cancer cells was also determined.
(§2) Cells were cultured in 96 well plates at a concentration of 1-2×10^4 cells/mL. Cell viability was assessed with the nonradioactive cell proliferation MTS assay using Cell Titer 96AQUEOUS One Solution Reagent (PROMEGA, Madison, Wis.), according to the manufacturer's instruction. After a 72-hour treatment, 20 μL of Cell Titer 96AQUEOUS One Solution Reagent were added to each well and incubated for 3 hours at 37° C. 5% CO2, and formazan absorbance was measured at 490 nm.
A cell viability MTS assay was carried out to determine the anti-cancer effect of the withanolides on human melanoma SKMEL28 cells. Cells were treated for 72 hours and cell viability was determined according to the manufacturer's instruction.

[2] = test system: melanoma cells B16F10; test: MTS cell viability assay, B16F10; details: Mus musculus; for IC50: B16-F10, Table 5; for IC90: B16-F10, Table 6
Procedure: as §1, §2

[3] = test system: MRC-5; test: MTS cell viability assay, MRC-5; details: Homo sapiens, MRC5, Table 5
[4] = test system: squamous cell carcinoma of head and neck cells JMAR; test: MTS cell viability assay, JMAR; details: for IC50: Table 5; for IC90: Table 6
Procedure: as §1, §2

[5] = test system: squamous cell carcinoma of head and neck cells MDA1986; test: MTS cell viability assay, MDA1986; details: for IC50: Table 5; for IC90: Table 6
Procedure: as §1, §2

[6] = Table 3, treated for 72 hours, NA = no activity
[7] = Homo sapiens, SK-MEL-28, Table 5

Row | IC50 [1, 6] [µM] | Compound | IC50 [2] [µM] | IC50 [1, 7] [µM] | IC50 [3] [µM] | IC50 [4] [µM] | IC50 [5] [µM] | IC90 [2] [µM] | IC90 ([1]; Homo sapiens) [µM] | IC90 [4] [µM] | IC90 [5] [µM]
1 | 0.23 | C=CCNC1=C2C[C@@H](C)C[C@H](OC)[C@H](O)[C@@H](C)/C=C(\C)[C@H](OC(N)=O)[C@@H](OC)/C=C\C=C(/C)C(=O)NC(=CC1=O)C2=O [17 AAG, 17-allylamino-17-demethoxygeldanamycin, reference compound] | – | – | – | – | – | – | – | – | –
2 | 17 | CC1=C(CO)C(=O)OC(C(C)C2CCC3C4CC(O)C5(C=O)CCC(=O)C5(C)C4CCC23C)C1 (stereo not drawn) [Compound O010, 22R-5β-formyl-6β,27-dihydroxyl-1-oxo-4-norwith-24-enolide, reference compound] | – | – | – | – | – | – | – | – | –
3 | – | CC1=C(CO)C(=O)O[C@@H]([C@@H](C)[C@H]2CC[C@H]3[C@@H]4CC=C5C=CC(=O)[C@]5(C)[C@H]4CC[C@]23C)C1 [Compound X006] | 19.2 | > 25 | > 25 | 19.7 | > 25 | – | – | – | –
4 | – | CO[C@H]1CC(=O)[C@]2(C)[C@@H]3[C@@H](C[C@H]4O[C@]42[C@H]1O)[C@@H]1CC[C@H]([C@H](C)[C@H]2CC(C)=C(CO)C(=O)O2)[C@@]1(C)C[C@@H]3O [Compound X007] | 5.57 | 11.6 | 7.33 | 12 | 8.34 | – | – | – | –
5 | – | CC1=C(COC2OC(CO)C(OC3OC(C)C(O)C(O)C3O)C(O)C2O)C(=O)O[C@@H]([C@@H](C)[C@H]2CC[C@H]3[C@@H]4C[C@H]5O[C@]56[C@@H](O)C=CC(=O)[C@]6(C)[C@H]4CC[C@]23C)C1 (stereo partly drawn) [Compound X011] | > 25 | 17.4 | 8.72 | 8.24 | 8.1 | – | – | – | –
6 | – | CC1=C(CO)C(=O)O[C@@](C)([C@@H](C)[C@H]2CC[C@H]3[C@@H]4CC=C5C[C@@H](OC6OC(CO)C(O)C(O)C6O)CC(=O)[C@]5(CO)[C@H]4CC[C@]23C)C1 (stereo partly drawn) [Compound X012] | 10.7 | > 25 | > 25 | > 25 | > 25 | – | – | – | –
7 | – | CC1=C(COC2OC(CO)C(O)C(O)C2O)C[C@H]([C@@H](C)[C@H]2CC[C@H]3[C@@H]4CC=C5C[C@@H](O)C[C@H](O)[C@]5(CO)[C@H]4CC[C@]23C)OC1=O (stereo partly drawn) [Compound X013] | > 25 | > 25 | > 25 | > 25 | > 25 | – | – | – | –
8 | – | CC1=C(COC2OC(CO)C(O)C(O)C2O)C[C@H]([C@@H](C)[C@H]2CC[C@H]3[C@@H]4CC(=O)C5=C(CC[C@@H](O)C5)[C@H]4CC[C@]23C)OC1=O (stereo partly drawn) [Compound X014] | > 25 | > 25 | > 25 | > 25 | > 25 | – | – | – | –
9 | – | CC1=C(COC2OC(CO)C(O)C(O)C2O)C[C@H]([C@@H](C)[C@H]2CC[C@H]3[C@@H]4C[C@H](O)c5cccc(O)c5[C@H]4CC[C@]23C)OC1=O (stereo partly drawn) [Compound X015] | > 25 | > 25 | > 25 | > 25 | > 25 | – | – | – | –
10 | – | CC1=C(COC2OC(CO)C(O)C(O)C2O)C[C@H]([C@@H](C)[C@H]2CC[C@H]3[C@@H]4CCC5=C(C(=O)C[C@H](O)C5)[C@H]4CC[C@]23C)OC1=O (stereo partly drawn) [Compound X026B] | 11 | > 25 | 13.5 | > 25 | > 25 | – | – | – | –
11 | – | CC1=C(C)C(=O)O[C@@H]([C@@H](C)[C@H]2CC[C@H]3[C@@H]4C[C@H]5O[C@]56[C@@H](O)C=CC(=O)[C@]6(CO)[C@H]4CC[C@]23C)C1 [Compound X030B] | 0.2 | 3.91 | 0.4 | 0.17 | 1.3 | – | – | – | –
12 | – | CC1=C(CO)C(=O)O[C@@H]([C@@H](C)[C@H]2CC[C@H]3[C@@H]4C[C@H]5O[C@]56[C@@H](OC(=O)CN(C)C)C=CC(=O)[C@]6(C)[C@H]4CC[C@]23C)C1 [Compound X036] | 4.37 | 2.35 | 3.69 | 3.53 | 1.59 | – | – | – | –
13 | – | CC(=O)OCC1=C(C)C[C@H]([C@@H](C)[C@H]2CC[C@H]3[C@@H]4C[C@H]5O[C@]56[C@@H](O)C=CC(=O)[C@]6(CO)[C@H]4CC[C@]23C)OC1=O [HFM-JA-336A] | 0.28 | 0.58 | – | 3.6 | – | 2.7 | 0.86 | 9.8 | 2.7
14 | – | CC(=O)OC[C@]12C(=O)C=C[C@H](O)[C@]13O[C@@H]3C[C@H]1[C@@H]3CC[C@H]([C@H](C)[C@H]4CC(C)=C(CO)C(=O)O4)[C@@]3(C)CC[C@@H]12 [HFM-JA-336B] | 0.37 | 0.24 | – | 1.2 | – | 1.2 | 1.16 | 3.1 | 1.2
15 | – | CC(=O)O[C@H]1C=CC(=O)[C@]2(CO)[C@H]3CC[C@]4(C)[C@@H]([C@H](C)[C@H]5CC(C)=C(CO)C(=O)O5)CC[C@H]4[C@@H]3C[C@H]3O[C@]132 [HFM-JA-336C] | 0.69 | 0.57 | – | 2 | – | 2.5 | 1.21 | 6.5 | 2.5
16 | – | CC(=O)OCC1=C(C)C[C@H]([C@@H](C)[C@H]2CC[C@H]3[C@@H]4C[C@H]5O[C@]56[C@@H](O)C=CC(=O)[C@]6(COC(C)=O)[C@H]4CC[C@]23C)OC1=O [HFM-JA-336D] | 0.37 | 0.27 | – | 1.45 | – | 2.5 | 0.42 | 7.1 | 2.5
17 | – | CC1=C(COC(=O)c2ccc(Cl)cc2)C(=O)O[C@@H]([C@@H](C)[C@H]2CC[C@H]3[C@@H]4C[C@H]5O[C@]56[C@@H](OC(=O)c5ccc(Cl)cc5)C=CC(=O)[C@]6(CO)[C@H]4CC[C@]23C)C1 [HFM-JA-398B] | 10 | > 25 | 7.13 | 10.6 | > 25 | – | – | – | –
18 | – | CC1=C(CO)C(=O)O[C@@H]([C@@H](C)[C@H]2CC[C@H]3[C@@H]4C[C@H]5O[C@]56[C@@H](OC(=O)c5ccc(Cl)cc5)C=CC(=O)[C@]6(CO)[C@H]4CC[C@]23C)C1 [HFM-JA-398H] | 2.35 | 3.45 | 5.29 | 2.61 | 6.05 | – | – | – | –
19 | – | CC(=O)OC[C@]12C(=O)C=C[C@H](OC(=O)c3ccc(Cl)cc3)[C@]13O[C@@H]3C[C@H]1[C@@H]3CC[C@H]([C@H](C)[C@H]4CC(C)=C(COC(=O)c5ccc(Cl)cc5)C(=O)O4)[C@@]3(C)CC[C@@H]12 [HFM-JA-400] | 9.04 | > 25 | 10.8 | > 25 | > 25 | – | – | – | –

Row | Compound | IC50 [1, 6] [µM] | IC50 [2] [µM] | IC50 [1, 7] [µM] | IC50 [3] [µM] | IC50 [4] [µM] | IC50 [5] [µM] | IC90 [2] [µM] | IC90 ([1]; Homo sapiens) [µM] | IC90 [4] [µM] | IC90 [5] [µM]
20 | CC1=C(CO)C(=O)O[C@@H]([C@@H](C)[C@H]2CC[C@H]3[C@@H]4C[C@H]5O[C@]56[C@@H](O)[C@@H](O)CC(=O)[C@]6(C)[C@H]4CC[C@]23C)C1 [Viscosalactone B, reference compound] | 18.9 | – | – | – | – | – | – | – | – | –
